Measured values from patent US20260263357A1, “PHASE SHIFTING INTRAVITREAL TAMPONADE” (Avant Sciences, Inc., priority 2023, published 2026).
Where two headings read alike, the source gives them in different places.

How the values were obtained:
[1] = cited from earlier work
[2] = cited from earlier work; remark: listed apart in the source
[3] = Experimental ultrasound absorbance (amplitude attenuation coefficient); type: physicochemical
Description: In some embodiments, the compounds of Structure 1 are capable of absorbing ultrasonic wave energy. The capacity of a given chemical to convert applied ultrasound from vibrational energy into heat is termed its ultrasonic absorbance, which itself varies depending upon the initial temperature and the frequency of the applied ultrasound. Additionally, the native vitreous within biological tissues approximates that of water, which itself has an ultrasonic absorption profile; thus, there is a baseline transmission of acoustic energy through ocular tissues, and this characteristic is routinely leveraged when it comes to various forms of imaging and therapy (Southern, Australas J Ultrasound Med. 2009 February; 12 (1): 32-37). In some embodiments, a compound that can preferentially absorb ultrasound more readily than that of water has the capacity to disproportionately absorb applied ultrasonic energy versus that of vitreous within the vitreous cavity. As such absorption would lead to local increase in temperature, thus facilitate the phase shift to a gaseous state.
With reference to Table 3, a compound with a larger amplitude attenuation coefficient absorbs ultrasound more than a compound that has a lower amplitude attenuation coefficient. It is clear that each of the compounds of Structure 1 (as shown in Table 3) is orders of magnitude more likely to absorb ultrasonic energy than water/vitreous. […] Indeed, it is notable that water, the least absorptive compound shown, is not only clearly symmetric on both a rotational axis and the mirror plane, but also has some of the strongest hydrogen bond forces in all of chemistry, allowing it to “pack itself together” much more readily than the other compounds on the list.

[4] = test system: New Zealand white rabbits; assay: Fundus imaging of tamponade bubble after injection into rabbit vitreous cavity (phase shift and removal); type: in vivo; conditions: 8 microliters injected into rabbit vitreous cavity
Experimental: The biological safety of a compound of Structure 1 is tested within an animal model. In particular, 2,2,2-Trifluoroethyl 1,1,2,2-tetrafluoroethyl ether was tested within a New Zealand white rabbits, an animal model in line with previous retinal tamponade studies (Santos et al., Retina, 33 (1): p 120-127 (1991)).
FIG. 1A includes a set of control retinal fundus images (near-infrared images IR and corresponding color images MC) for which balanced salt solution BSS (effectively water) was injected into a rabbit vitreous cavity. […] In other words, 2,2,2-Trifluoroethyl 1,1,2,2-tetrafluoroethyl ether was empirically determined to successfully phase shift under biological conditions at around 1 week post placement, and then subsequently carried out of the body over the next 2 months. […]
FIG. 6A includes a set of control retinal fundus images (near-infrared images IR and corresponding color images MC) for which balanced salt solution BSS (effectively water) was injected into a rabbit vitreous cavity. […] In other words, 1,1,2,3,3,3-Hexafluoropropyl difluoromethyl ether was empirically determined to successfully phase shift under biological conditions at around 1-3 days post placement, and then subsequently fully carried out of the body by Day 8. […]

[5] = test system: New Zealand white rabbits; assay: Intraocular pressure measurements after intravitreal injection; type: in vivo, rabbit
Description: (§1) Additionally, to address concerns about biological toxicity of these compounds, intraocular pressure measurements and both scotopic a-wave, b-wave, and photopic b-wave ERGs were done on all 6 rabbits in the study, without any statistically notable adverse signals (FIG. 2-5).
Additionally, to address concerns about biological toxicity of these compounds, intraocular pressure measurements were done on all 4 rabbits in the study, without any statistically notable adverse signals.

[6] = test system: New Zealand white rabbits; assay: Scotopic a-wave, b-wave and photopic b-wave ERGs after intravitreal injection; type: in vivo, rabbit; conditions: baseline and 2 months
Description: as §1

[7] = Table 5; cited from earlier work
[8] = Table 2, selected fluorinated ethers
[9] = Table 1, selected fluorinated alkanes
[10] = 6 rabbits, up to about two months after injection, FIG. 2
[11] = 4 rabbits, up to about 1 month after injection, FIG. 7

| SMILES | Flammable? [1, 8] | Boiling Point [2, 8] | Flammable? [1, 9] | Density [7] | Boiling Point ([2]; Table 5) | also measured |
| --- | --- | --- | --- | --- | --- | --- |
| COC(F)(F)C(F)(F)C(F)(F)F [Heptafluoropropyl methyl ether] | No | 34 °C |  |  |  |  |
| FCCC(F)F [1,1,3-Trifluoropropane] |  |  | YES |  |  |  |
| COC(F)C(F)(F)F (centres unmarked) [1,2,2,2-Tetrafluoroethyl methyl ether] | YES |  |  |  |  |  |
| FC(F)C(F)(F)OCC(F)(F)F [2,2,2-Trifluoroethyl 1,1,2,2-tetrafluoroethyl ether] | No | 56 °C |  | 1.487 g/mL | 56.7 °C | Amplitude Attenuation Coefficient [3]: 2.65 db/cm-MHz; Time over which agent is carried out of the body after phase shift ([4]; fundus images to D56): ~2 months; Intraocular pressure compared to control (Balanced Salt Solution) [5, 10]: not significantly different; Intraocular pressure relative to normal physiologic range [5, 10]: nor were their intraocular pressures outside of normal physiologic range throughout the study; Scotopic a-wave ERG amplitude (rod and cone cells, dark-adapted) vs control (Balanced Salt Solution) ([6]; FIG. 3): no significant difference; Scotopic b-wave ERG amplitude (bipolar cells, dark-adapted) vs control (Balanced Salt Solution) ([6]; FIG. 4): no significant difference; Photopic b-wave ERG amplitude (bipolar cells, light-adapted) vs control (Balanced Salt Solution) ([6]; FIG. 5): no significant difference |
| FC(F)(F)C(F)(F)C(F)(F)F [Perfluoropropane] |  |  | No |  |  |  |
| FC(F)OCC(F)(F)C(F)(F)F [Difluoromethyl 2,2,3,3,3-pentafluoropropyl ether] | No | 46 °C |  | 1.46 g/mL | 46 °C | Amplitude Attenuation Coefficient [3]: 0.57 db/cm-MHz |
| FC(OC(F)(F)C(F)(F)C(F)(F)F)C(F)(F)F (centres unmarked) [Heptafluoropropyl 1,2,2,2-tetrafluoroethyl ether] | No | 40 °C |  | 1.538 g/mL | 40 °C | Amplitude Attenuation Coefficient [3]: 3.58 db/cm-MHz |
| COC(F)(F)C(F)F [tetrafluoroethyl methyl ether] | YES | 37 °C |  |  |  |  |
| FC(C(F)(F)F)C(F)(F)OCC(F)(F)C(F)(F)C(F)(F)F (centres unmarked) [1,1,1,2,2,3,3-Heptafluoro-4-(1,1,2,3,3,3-hexafluoropropoxy)butane, reference compound] |  |  |  | 1.63 g/mL | 102 °C |  |
| FC(F)C(F)(F)C(F)F [1,1,2,2,3,3-Hexafluoropropane] |  |  | No |  |  | Boiling Point [2, 9]: 5 °C |
| FCOCF [Bis(fluoromethyl) ether] | YES | 34 °C |  |  |  |  |
| CCOC(F)(F)C(F)(F)F [Ethyl pentafluoroethyl ether] | YES | 30 °C |  |  |  |  |
| FC(F)C(F)(F)C(F)(F)F [1,1,1,2,2,3,3-Heptafluoropropane] |  |  | No |  |  | Boiling Point [2, 9]: −16 °C |
| FC(F)OC(F)(F)C(F)C(F)(F)F (centres unmarked) [1,1,2,3,3,3-Hexafluoropropyl difluoromethyl ether] | No | 47 °C |  | 1.5 g/mL | 47 °C | Amplitude Attenuation Coefficient [3]: 3.35 db/cm-MHz; Day by which agent is fully carried out of the body ([4]; fundus images to D30): ≤ 8 days; Intraocular pressure compared to control (Balanced Salt Solution) [5, 11]: not significantly different; Intraocular pressure relative to normal physiologic range [5, 11]: nor were their intraocular pressures outside of normal physiologic range throughout the study |
| FCC(F)(F)C(F)F [1,1,2,2,3-Pentafluropropane] |  |  | YES |  |  | Boiling Point [2, 9]: 26 °C |
| FCCC(F)(F)F [1,1,1,3-Tetrafluoropropane] |  |  | YES |  |  |  |
| O [Water, reference compound] |  |  |  |  |  | Amplitude Attenuation Coefficient [3]: 0.002 db/cm-MHz |
| FC(F)C(F)(F)COCC(F)(F)C(F)F [1,1,2,2-Tetrafluoro-3-(2,2,3,3-tetrafluoropropoxy)propane, reference compound] |  |  |  | 1.627 g/mL | 35 °C |  |
| CC(F)(F)OCC(F)(F)F [1,1-Difluoroethyl 2,2,2-trifluoroethyl ether] | YES |  |  |  |  |  |
